Activity calls are given as the source filed them. Rule as the data show it: actives have a measured IC50 and inactives only a lower limit.
Tests used:
Assay type in all cases: functional
[1] = target: T1, Sentrin-specific protease 7 (Homo sapiens, UniProt Q9BQF6);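 also: Luminescence-based dose-response confirmation of ultra-high-throughput screening hits, measuring inhibition of SENP7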
T1 sequence (Q9BQF6 whole entry): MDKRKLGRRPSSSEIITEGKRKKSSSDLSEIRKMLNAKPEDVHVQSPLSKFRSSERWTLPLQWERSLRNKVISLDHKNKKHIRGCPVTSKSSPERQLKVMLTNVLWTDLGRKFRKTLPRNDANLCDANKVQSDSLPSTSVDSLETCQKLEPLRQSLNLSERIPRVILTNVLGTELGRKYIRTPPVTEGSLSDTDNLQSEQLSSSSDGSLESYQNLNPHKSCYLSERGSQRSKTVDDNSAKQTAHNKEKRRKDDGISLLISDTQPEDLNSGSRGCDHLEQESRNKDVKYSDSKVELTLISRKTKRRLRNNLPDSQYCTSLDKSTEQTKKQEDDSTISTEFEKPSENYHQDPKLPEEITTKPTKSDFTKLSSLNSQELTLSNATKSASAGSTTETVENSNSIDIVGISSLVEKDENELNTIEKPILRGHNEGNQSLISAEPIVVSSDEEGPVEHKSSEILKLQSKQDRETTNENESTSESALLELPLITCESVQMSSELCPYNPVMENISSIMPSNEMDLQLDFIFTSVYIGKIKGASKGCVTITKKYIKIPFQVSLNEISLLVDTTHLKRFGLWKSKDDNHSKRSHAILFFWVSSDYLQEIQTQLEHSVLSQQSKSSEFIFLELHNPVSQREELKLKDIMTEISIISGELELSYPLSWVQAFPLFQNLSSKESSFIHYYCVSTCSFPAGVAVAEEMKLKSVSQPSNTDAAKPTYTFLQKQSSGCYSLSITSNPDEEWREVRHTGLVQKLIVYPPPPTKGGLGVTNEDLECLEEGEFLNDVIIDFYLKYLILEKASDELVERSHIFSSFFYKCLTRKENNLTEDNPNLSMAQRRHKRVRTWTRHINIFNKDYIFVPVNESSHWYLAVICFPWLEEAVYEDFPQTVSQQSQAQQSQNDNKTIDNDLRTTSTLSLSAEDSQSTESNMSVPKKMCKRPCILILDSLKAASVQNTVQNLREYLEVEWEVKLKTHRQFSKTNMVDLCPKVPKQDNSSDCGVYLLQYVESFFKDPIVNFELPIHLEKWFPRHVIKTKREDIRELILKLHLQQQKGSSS

Caspase-3 = target: T2, Caspase-3 (Homo sapiens, UniProt P42574);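 also: Dose-response selectivity test against caspase-3 for candidate inhibitors of sentrin-specific proteases (SENPs)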
T2 sequence (P42574 whole entry): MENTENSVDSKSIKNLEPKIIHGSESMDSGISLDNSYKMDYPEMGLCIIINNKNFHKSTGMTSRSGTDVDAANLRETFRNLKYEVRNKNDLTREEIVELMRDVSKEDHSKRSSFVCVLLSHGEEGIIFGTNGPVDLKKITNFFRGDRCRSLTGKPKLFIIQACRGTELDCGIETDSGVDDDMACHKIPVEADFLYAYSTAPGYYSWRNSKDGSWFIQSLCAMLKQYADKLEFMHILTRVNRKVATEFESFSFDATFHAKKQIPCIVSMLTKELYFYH

[2] = target: T3, Sentrin-specific protease 6 (Homo sapiens, UniProt Q9GZR1);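 also: Luminescence-based dose-response confirmatory assay of SENP6 inhibition, following up an ultra-high-throughput screen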
T3 sequence (Q9GZR1 whole entry): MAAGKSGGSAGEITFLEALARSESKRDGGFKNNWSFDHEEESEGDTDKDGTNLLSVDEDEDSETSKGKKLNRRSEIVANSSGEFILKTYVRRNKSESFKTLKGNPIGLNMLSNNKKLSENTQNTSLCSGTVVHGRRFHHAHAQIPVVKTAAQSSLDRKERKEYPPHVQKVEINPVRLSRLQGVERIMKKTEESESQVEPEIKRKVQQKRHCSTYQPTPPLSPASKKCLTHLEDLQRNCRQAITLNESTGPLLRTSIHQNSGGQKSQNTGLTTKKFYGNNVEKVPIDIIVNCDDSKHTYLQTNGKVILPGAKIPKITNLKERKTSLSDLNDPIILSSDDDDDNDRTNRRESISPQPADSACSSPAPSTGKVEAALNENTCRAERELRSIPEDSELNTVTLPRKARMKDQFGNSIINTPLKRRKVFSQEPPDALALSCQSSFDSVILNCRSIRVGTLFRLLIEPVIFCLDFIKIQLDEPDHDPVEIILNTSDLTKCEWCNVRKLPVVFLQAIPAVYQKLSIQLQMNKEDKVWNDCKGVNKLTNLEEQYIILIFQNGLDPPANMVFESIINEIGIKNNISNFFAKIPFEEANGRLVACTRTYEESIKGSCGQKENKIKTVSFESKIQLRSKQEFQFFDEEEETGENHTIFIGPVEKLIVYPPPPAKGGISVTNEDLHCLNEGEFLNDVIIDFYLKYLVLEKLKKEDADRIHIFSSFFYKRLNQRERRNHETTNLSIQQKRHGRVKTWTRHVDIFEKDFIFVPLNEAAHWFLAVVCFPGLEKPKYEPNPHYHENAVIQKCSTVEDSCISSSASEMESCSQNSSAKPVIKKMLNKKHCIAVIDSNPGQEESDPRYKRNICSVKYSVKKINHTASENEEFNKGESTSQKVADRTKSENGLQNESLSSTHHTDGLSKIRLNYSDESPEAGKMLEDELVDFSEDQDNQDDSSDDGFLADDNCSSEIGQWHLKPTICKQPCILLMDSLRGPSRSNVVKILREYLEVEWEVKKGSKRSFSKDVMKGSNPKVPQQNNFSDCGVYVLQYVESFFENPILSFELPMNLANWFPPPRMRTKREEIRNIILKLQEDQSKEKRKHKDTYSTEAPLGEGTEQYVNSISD

[3] = target: T4, Sentrin-specific protease 8 (Homo sapiens, UniProt Q96LD8);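 also: luminescence read-out of SENP8 inhibition, dose-response confirmation following an ultra-high-throughput screen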
T4 sequence (Q96LD8 whole entry): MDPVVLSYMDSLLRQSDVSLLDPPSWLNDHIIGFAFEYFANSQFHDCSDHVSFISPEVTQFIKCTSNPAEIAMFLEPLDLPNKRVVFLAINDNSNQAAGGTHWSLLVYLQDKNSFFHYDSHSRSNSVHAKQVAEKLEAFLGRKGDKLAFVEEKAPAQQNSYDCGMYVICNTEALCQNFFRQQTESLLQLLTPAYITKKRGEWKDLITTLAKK

Measured: IC50

O=C1C=C(Nc2ccccc2C(=O)O)c2ccccc2C1=O
active: [1] 7.86 µM | Caspase-3 4.8 µM | [2] 2 µM | [3] 3.3 µM

CC(C)(C)c1cc[n+](C2=C([N-]S(=O)(=O)c3ccccc3)C(=O)c3ccccc3C2=O)cc1
active: [1] 13.5 µM | Caspase-3 76.7 µM | [2] 8.45 µM | [3] 13.6 µM

O=C1C(=O)c2ccccc2C(O)=C1CCCCl
active: [1] 9.05 µM | Caspase-3 37.8 µM | [2] 7.23 µM | [3] 14.4 µM

COc1ccc(NC(=S)Nc2ccc3nsnc3c2)cc1
active: [1] 4.08 µM | Caspase-3 7.54 µM | [2] 2.3 µM | [3] 2.74 µM

From ChEMBL document CHEMBL1201862, “PubChem BioAssay data set” (2004)
